Data from ChEMBL document CHEMBL4425137, “Selective 5-HT2C receptor agonists: Design and synthesis of pyridazine-fused azepines” (Bioorg Med Chem Lett, 2016).

Experiments:
[1] = biological target: T1, 5-hydroxytryptamine receptor 2B (Homo sapiens, UniProt P41595); test: Agonist activity at recombinant human 5-HT2B receptor transfected in CHOK1 cells assessed as calcium mobilization by FLIPR assay; type: cell-based
[2] = biological target: T2, 5-hydroxytryptamine receptor 2C (Homo sapiens, UniProt P28335)
T2 sequence (P28335 whole entry): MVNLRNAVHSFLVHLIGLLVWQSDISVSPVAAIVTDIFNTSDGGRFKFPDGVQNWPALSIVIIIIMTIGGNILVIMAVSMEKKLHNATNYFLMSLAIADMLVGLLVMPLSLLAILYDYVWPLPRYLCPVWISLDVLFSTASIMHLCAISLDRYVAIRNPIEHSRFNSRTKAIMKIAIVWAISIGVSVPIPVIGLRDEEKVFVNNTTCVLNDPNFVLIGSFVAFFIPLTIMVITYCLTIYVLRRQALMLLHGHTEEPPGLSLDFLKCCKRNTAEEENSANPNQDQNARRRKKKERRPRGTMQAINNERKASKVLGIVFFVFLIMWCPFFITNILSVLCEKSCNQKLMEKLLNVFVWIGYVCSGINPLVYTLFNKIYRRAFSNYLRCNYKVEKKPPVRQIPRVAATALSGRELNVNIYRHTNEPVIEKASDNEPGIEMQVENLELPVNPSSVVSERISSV
Description: Agonist activity at recombinant human 5-HT2C receptor transfected in CHOK1 cells assessed as calcium mobilization by FLIPR assay

5-HT2B receptor = 5-HT2B receptor (Homo sapiens, UniProt P41595); test: in vitro
Description: (§1) Agonist activity at recombinant human 5-HT2B receptor transfected in CHOK1 cells assessed as calcium mobilization at 10 uM by FLIPR assay

in vitro [3] = conditions: human, liver microsomes
Description: (§2) Intrinsic clearance in human liver microsomes

physchem = conditions: octanol/water
Description: Lipophilicity, log D of the compound

in vitro [4] = conditions: dog, MDCK, permeability
Description: Permeability in RRCK cells

MDR1 = test: in vitro; conditions: dog, MDCK-MDR1, Ratio
Description: Efflux ratio of permeability from basolateral to apical side over apical to basolateral side in MDCK cells expressing MDR1

[5] = biological target: T2, 5-hydroxytryptamine receptor 2C; test: biochemical
Description: Displacement of [3H]-mesulergine from recombinant human 5-HT2C receptor transfected in Swiss mouse 3T3 cells after 150 mins by scintillation proximity assay

[6] = human, microsomes
Description: as §2

[7] = biological target: T1, 5-hydroxytryptamine receptor 2B; conditions: 10 µM
Description: as §1

[8] = dog, mdckii-le
Description: Permeability in RRCK cells

5-HT2B receptor, sequence (P41595 whole entry): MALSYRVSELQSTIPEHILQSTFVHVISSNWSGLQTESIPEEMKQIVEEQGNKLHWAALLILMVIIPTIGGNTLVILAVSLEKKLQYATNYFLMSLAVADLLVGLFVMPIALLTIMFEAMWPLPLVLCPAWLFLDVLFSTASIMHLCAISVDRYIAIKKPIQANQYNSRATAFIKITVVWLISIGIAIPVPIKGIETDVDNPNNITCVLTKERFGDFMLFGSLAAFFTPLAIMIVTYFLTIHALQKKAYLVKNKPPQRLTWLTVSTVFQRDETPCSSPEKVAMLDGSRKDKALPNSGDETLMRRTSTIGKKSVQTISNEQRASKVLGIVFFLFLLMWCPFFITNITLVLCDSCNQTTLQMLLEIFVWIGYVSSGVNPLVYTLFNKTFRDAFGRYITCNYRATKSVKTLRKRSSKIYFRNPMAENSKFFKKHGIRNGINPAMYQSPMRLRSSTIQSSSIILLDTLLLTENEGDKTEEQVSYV
T1 sequence (P41595 whole entry): as above

EC50 [1]	EC50 [2]	Emax at 10 µM (5-HT2B receptor)	microsomal CLint (in vitro [3])	logD (physchem)	Papp (in vitro [4])	efflux ratio (MDR1)	Ki [5]	CLH [6]	Emax [7]	permeability [8]	SMILES
800 nM	310 nM	41%	< 7 µL/min/mg	0.7	15 ×10⁻⁶ cm/s	1.1	200 nM				Clc1ccccc1Cc1cc2c(nn1)CCNCC2
410 nM	310 nM	63%	< 7 µL/min/mg	0.8	13 ×10⁻⁶ cm/s	1.3	120 nM				Clc1ccc(Cc2cc3c(nn2)CCNCC3)cc1
								< 8000 µL/min/mg			c1ccc(Cc2ncc3c(n2)CCNCC3)cc1
	> 10000 nM	40%	9 µL/min/mg	0.1	16 ×10⁻⁶ cm/s	1.9	550 nM				COc1ccccc1Cc1cc2c(nn1)CCNCC2
		3%		0.1	13 ×10⁻⁶ cm/s	1	2700 nM	< 7000 µL/min/mg			c1ccc(Cn2cc3c(n2)CCNCC3)cc1
	> 10000 nM	64%	< 7 µL/min/mg	0.2	14 ×10⁻⁶ cm/s	1.2	450 nM				Fc1ccc(Cc2cc3c(nn2)CCNCC3)cc1
	70 nM	24%		-0.1		3	110 nM	< 8000 µL/min/mg			O=c1[nH]c2c(nc1Cc1ccccc1)CCNCC2
	30 nM	48%		0.3	13 ×10⁻⁶ cm/s	1	10 nM	< 7000 µL/min/mg			O=c1cc2c(nn1Cc1ccccc1)CCNCC2
	110 nM						170 nM		55%	14 ×10⁻⁶ cm/s	CC(c1ccccc1)c1cc2c(nn1)CCNCC2 (stereo in doubt; 15h)
450 nM	750 nM	57%	< 7 µL/min/mg	0.9	13 ×10⁻⁶ cm/s	1.7	250 nM				FC(F)(F)c1cccc(Cc2cc3c(nn2)CCNCC3)c1
	190 nM	36%	< 8 µL/min/mg	0.4	13 ×10⁻⁶ cm/s	1.8	200 nM				CC(c1ccccc1)c1cc2c(nn1)CCNCC2 (stereo in doubt; 15g)
	130 nM	29%	< 7 µL/min/mg	0	14 ×10⁻⁶ cm/s	1	80 nM				c1ccc(Cc2cc3c(nn2)CCNCC3)cc1
	220 nM		< 8 µL/min/mg		14 ×10⁻⁶ cm/s	1.9	520 nM				Cc1c(Cc2ccccc2)nnc2c1CCNCC2

SMILES	EC50 [1]	EC50 [2]	Emax at 10 µM (5-HT2B receptor)	microsomal CLint (in vitro [3])	logD (physchem)	Papp (in vitro [4])	efflux ratio (MDR1)	Ki [5]	CLH [6]	Emax [7]	permeability [8]
O=c1c2c([nH]n1Cc1ccccc1)CCNCC2		> 10000 nM	0%		-0.5	< 1 ×10⁻⁶ cm/s					
O=c1[nH]n(Cc2ccccc2)c2c1CCNCC2		> 10000 nM	0%		-0.1	< 1 ×10⁻⁶ cm/s	1.2		< 7000 µL/min/mg		
c1ccc(Cc2nnc3n2CCNCC3)cc1		> 10000 nM	0%		-0.3	2 ×10⁻⁶ cm/s	1.3	> 10000 nM	< 8000 µL/min/mg		
